# ChEMBL document CHEMBL4393657, “Tetrazole hybrids and their antifungal activities” (2019)
# Columns and labels:
# Assay type in all cases: functional
# Cryptococcus neoformans = test: Antifungal activity against Cryptococcus neoformans LA314 assessed as reduction in fungal cell growth incubated for 48 hrs by broth microdilution method; conditions: LA314, 48 h
# Nakaseomyces glabratus = test: Antifungal activity against Candida glabrata assessed as reduction in fungal cell growth incubated for 48 hrs by broth microdilution method
# Candida parapsilosis = test: Antifungal activity against Candida parapsilosis ATCC 22019 assessed as reduction in fungal cell growth incubated for 48 hrs by broth microdilution method; conditions: Lodderomyces parapsilosis, ATCC 22019, 48 h
# Pichia kudriavzevii = test: Antifungal activity against Candida krusei assessed as reduction in fungal cell growth incubated for 48 hrs by broth microdilution method
# Candida albicans = test: Antifungal activity against Candida albicans assessed as reduction in fungal cell growth incubated for 48 hrs by broth microdilution method
# Candida tropicalis = test: Antifungal activity against Candida tropicalis assessed as reduction in fungal cell growth incubated for 48 hrs by broth microdilution method
# Aspergillus niger = test: Antifungal activity against Aspergillus niger assessed as reduction in fungal cell growth incubated for 72 hrs by broth microdilution method
MIC (Cryptococcus neoformans) [µg/mL],MIC (Nakaseomyces glabratus) [µg/mL],MIC (Candida parapsilosis) [µg/mL],MIC (Pichia kudriavzevii) [µg/mL],MIC (Candida albicans) [µg/mL],MIC (Candida tropicalis) [µg/mL],MIC (Aspergillus niger) [µg/mL],Structure (SMILES)
0.12 to 16,0.12 to 16,0.12 to 16,0.12 to 16,0.12 to 16,0.12 to 16,0.12 to 16,COc1ccccc1N1CCN(CCc2nnnn2[C@@H](C)[C@](O)(Cn2cncn2)c2ccc(F)cc2F)CC1
0.25 to 16,0.25 to 16,0.25 to 16,0.25 to 16,0.25 to 16,0.25 to 16,0.25 to 16,C[C@H](n1nnc(CCN2CCN(c3cccc(Cl)c3)CC2)n1)[C@](O)(Cn1cncn1)c1ccc(F)cc1F
0.12 to 16,0.12 to 16,0.12 to 16,0.12 to 16,0.12 to 16,0.12 to 16,0.12 to 16,C[C@H](n1nnnc1CCN1CCN(c2c(Cl)cccc2Cl)CC1)[C@](O)(Cn1cncn1)c1ccc(F)cc1F
0.5 to 16,0.5 to 16,0.5 to 16,0.5 to 16,0.5 to 16,0.5 to 16,0.5 to 16,CC(n1nnnc1CCN1CCN(c2cccc(Cl)c2)CC1)C(O)(Cn1cncn1)c1ccc(F)cc1F (stereo unspecified)
0.25 to 16,0.25 to 16,0.25 to 16,0.25 to 16,0.25 to 16,0.25 to 16,0.25 to 16,C[C@H](n1nnc(CCN2CCN(c3c(Cl)cccc3Cl)CC2)n1)[C@](O)(Cn1cncn1)c1ccc(F)cc1F
0.5 to 16,0.5 to 16,0.5 to 16,0.5 to 16,0.5 to 16,0.5 to 16,0.5 to 16,CC(n1nnnc1CCN1CCN(c2c(Cl)cccc2Cl)CC1)C(O)(Cn1cncn1)c1ccc(F)cc1F (stereo unspecified)
0.5 to 16,0.5 to 16,0.5 to 16,0.5 to 16,0.5 to 16,0.5 to 16,0.5 to 16,CC(n1nnnc1CCN1CCN(c2ccccc2)CC1)C(O)(Cn1cncn1)c1ccc(F)cc1F (stereo unspecified)
1 to 16,1 to 16,1 to 16,1 to 16,1 to 16,1 to 16,1 to 16,O=[N+]([O-])c1ccc(N2CCN(CCc3nnn(CC(O)(Cn4cncn4)c4ccc(F)cc4F)n3)CC2)cc1 (stereo unspecified)
1 to 16,1 to 16,1 to 16,1 to 16,1 to 16,1 to 16,1 to 16,COc1ccc(N2CCN(CCc3nnn(CC(O)(Cn4cncn4)c4ccc(F)cc4F)n3)CC2)cc1 (stereo unspecified)
0.12 to 16,0.12 to 16,0.12 to 16,0.12 to 16,0.12 to 16,0.12 to 16,0.12 to 16,C[C@H](n1nnnc1CCN1CCN(c2ccccn2)CC1)[C@](O)(Cn1cncn1)c1ccc(F)cc1F
0.5 to 16,0.5 to 16,0.5 to 16,0.5 to 16,0.5 to 16,0.5 to 16,0.5 to 16,COc1ccc(N2CCN(CCc3nnnn3C(C)C(O)(Cn3cncn3)c3ccc(F)cc3F)CC2)cc1 (stereo unspecified)
0.5 to 16,0.5 to 16,0.5 to 16,0.5 to 16,0.5 to 16,0.5 to 16,0.5 to 16,CCCCOc1ccccc1N1CCN(CCc2nnnn2C(C)C(O)(Cn2cncn2)c2ccc(F)cc2F)CC1 (stereo unspecified)
1 to 16,1 to 16,1 to 16,1 to 16,1 to 16,1 to 16,1 to 16,CCCCOc1ccccc1N1CCN(CCc2nnn(CC(O)(Cn3cncn3)c3ccc(F)cc3F)n2)CC1 (stereo unspecified)
1 to 16,1 to 16,1 to 16,1 to 16,1 to 16,1 to 16,1 to 16,COc1ccc(N2CCN(CCc3nnn(C(C)C(O)(Cn4cncn4)c4ccc(F)cc4F)n3)CC2)cc1 (stereo unspecified)
0.5 to 16,0.5 to 16,0.5 to 16,0.5 to 16,0.5 to 16,0.5 to 16,0.5 to 16,OC(Cn1cncn1)(Cn1nnnc1CCN1CCN(c2ccc(Cl)cc2)CC1)c1ccc(F)cc1F (stereo unspecified)
1 to 16,1 to 16,1 to 16,1 to 16,1 to 16,1 to 16,1 to 16,OC(Cn1cncn1)(Cn1nnc(CCN2CCN(C(c3ccccc3)c3ccccc3)CC2)n1)c1ccc(F)cc1F (stereo unspecified)
0.5 to 16,0.5 to 16,0.5 to 16,0.5 to 16,0.5 to 16,0.5 to 16,0.5 to 16,OC(Cn1cncn1)(Cn1nnnc1CCN1CCN(c2ccccn2)CC1)c1ccc(F)cc1F (stereo unspecified)
0.5 to 16,0.5 to 16,0.5 to 16,0.5 to 16,0.5 to 16,0.5 to 16,0.5 to 16,OC(Cn1cncn1)(Cn1nnnc1CCN1CCN(c2cccc(Cl)c2)CC1)c1ccc(F)cc1F (stereo unspecified)
